Source: paper PMC8093860, “Anti-Hyperuricemic and Nephroprotective Effects of Dihydroberberine in Potassium Oxonate- and Hypoxanthine-Induced Hyperuricemic Mice” (Frontiers in Pharmacology, 2021)

Target: T1, Xanthine oxidase (XOD) (Bos taurus, UniProt P80457)
T1 construct: gene XDH
Experiment: spectrophotometric XOD inhibition assay at […] nm with xanthine substrate, cow milk enzyme
Type: biochemical

T1 sequence (P80457 2-1332): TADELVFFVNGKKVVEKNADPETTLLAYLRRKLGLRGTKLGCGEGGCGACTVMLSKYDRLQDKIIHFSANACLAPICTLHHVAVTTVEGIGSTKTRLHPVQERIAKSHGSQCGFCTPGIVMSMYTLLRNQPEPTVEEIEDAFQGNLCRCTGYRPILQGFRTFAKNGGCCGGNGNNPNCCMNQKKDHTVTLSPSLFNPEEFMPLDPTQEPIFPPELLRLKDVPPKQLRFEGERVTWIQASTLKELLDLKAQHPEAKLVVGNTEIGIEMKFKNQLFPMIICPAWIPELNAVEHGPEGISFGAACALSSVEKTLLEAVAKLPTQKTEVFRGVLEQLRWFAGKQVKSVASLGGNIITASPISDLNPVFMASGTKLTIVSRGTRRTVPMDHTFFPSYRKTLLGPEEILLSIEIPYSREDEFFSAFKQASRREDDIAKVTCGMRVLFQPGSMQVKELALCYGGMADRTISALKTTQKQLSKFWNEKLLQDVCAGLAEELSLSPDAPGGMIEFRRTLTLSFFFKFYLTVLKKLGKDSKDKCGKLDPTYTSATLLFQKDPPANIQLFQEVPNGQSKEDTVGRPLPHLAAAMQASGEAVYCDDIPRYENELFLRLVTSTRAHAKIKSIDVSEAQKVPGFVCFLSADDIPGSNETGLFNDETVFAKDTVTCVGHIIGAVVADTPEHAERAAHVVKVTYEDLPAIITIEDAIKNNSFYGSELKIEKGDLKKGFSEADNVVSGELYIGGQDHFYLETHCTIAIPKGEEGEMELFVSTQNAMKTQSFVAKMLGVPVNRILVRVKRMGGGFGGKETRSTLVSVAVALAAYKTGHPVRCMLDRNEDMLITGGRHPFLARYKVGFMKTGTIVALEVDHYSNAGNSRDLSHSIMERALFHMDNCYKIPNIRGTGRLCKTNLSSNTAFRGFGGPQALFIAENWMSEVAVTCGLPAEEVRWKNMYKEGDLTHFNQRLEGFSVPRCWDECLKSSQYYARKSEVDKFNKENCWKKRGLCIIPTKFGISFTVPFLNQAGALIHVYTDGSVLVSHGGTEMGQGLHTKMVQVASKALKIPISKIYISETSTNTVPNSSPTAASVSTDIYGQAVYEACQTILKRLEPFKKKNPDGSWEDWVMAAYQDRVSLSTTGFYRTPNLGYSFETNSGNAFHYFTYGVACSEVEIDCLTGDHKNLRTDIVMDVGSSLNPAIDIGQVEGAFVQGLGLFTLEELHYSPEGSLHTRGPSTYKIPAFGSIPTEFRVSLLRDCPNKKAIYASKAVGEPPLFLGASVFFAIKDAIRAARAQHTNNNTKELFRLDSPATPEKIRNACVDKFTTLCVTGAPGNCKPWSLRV

How did the IC50 turn out when `COc1ccc2c(c1OC)CN1CCc3cc4c(cc3C1=C2)OCO4` [DHB, Dihydroberberine] was run?
Its IC50 is 34.4 ± 2.84 µM.
